Laboratory results as given in a melting point compilation (Tetko et al.; mined from patent text by program, amines drawn as free bases though some values may be those of a salt).

Compared with `C[C@@H](NC(=O)c1cnn(-c2ccc(Cl)cc2)c1N)[C@](O)(Cn1cncn1)c1ccc(F)cc1F`, `CC(C#N)C(O)(Cn1cncn1)c1ccc(Cl)cc1Cl` (configuration not stated) is lower in melting point: 181 to 182 °C for the first, 164 °C for the second.

First: CCc1c(CC(=O)NCCCCCCNC(=O)Cc2ccc([N+](=O)[O-])cc2)ccc(OC)c1OC
Second: CCOC(=O)CCNC(=O)c1oc2cc(-c3ccc(Cn4c(C)nc5ccccc54)cc3)ccc2c1C
The melting point of the first is lower: 146 to 148 °C for the first, 196 to 197 °C for the second.

First: Cc1c(NC(=O)c2ccc(-c3ccccc3)cc2)ccc2cc(CN3CCCC3)cnc12
Second: O=C(Nc1cccc2cc(CO)cnc12)c1c(Cl)cccc1Cl
The melting point of the first is lower: 184 to 186 °C for the first, 224 to 226 °C for the second.

First: Cc1nn(-c2cc(OS(C)(=O)=O)c(Cl)cc2F)c(C)c1[N+](=O)[O-]
Second: CS(=O)(=O)c1ccc(-n2nc(C(F)(F)F)cc2-c2nc3ccc(F)cc3s2)cc1
The melting point of the first is lower: 150 to 152 °C for the first, 194 to 196 °C for the second.

First: COc1ccc(N2CCN(c3c(C)c(C)c4c(c3C)C(O)(c3ccsc3)C(C)(C)O4)CC2)cc1 (configuration not stated)
Second: COc1ccc(N2CCN(c3ccc(OC)nc3-c3ccc(OC)cc3CO)CC2)cc1
The melting point of the first is lower: 131 to 133 °C for the first, 163 to 165 °C for the second.

First: Cn1c(-c2ccccc2)c2c(c(C#N)c1=O)-c1ccccc1C2=O
Second: Cc1ncc2n1-c1ccc(C#N)cc1C(c1ccccc1F)=NC2
The melting point of the first is higher: 255 to 256 °C for the first, 198 to 203 °C for the second.

First: CCn1cnc2c(Nc3ccc(C(F)(F)F)cc3)nc(NCCO)nc21
Second: O=S(=O)(Nc1ncnc(OCCO)c1-c1ccc(Cl)cc1)c1ccc(C(F)(F)F)cc1
The melting point of the first is higher: 191 to 192 °C for the first, 160 to 162 °C for the second.

First: CCCCc1ccc2c(=O)c(O)c(-c3cc(O)c(O)c(O)c3)oc2c1
Second: Cc1nc(-c2cc(C)c(OCCCc3cnc4ccccc4c3)c(C)c2)no1
The melting point of the first is higher: 142 °C for the first, 105 to 107 °C for the second.

First: O=C(c1ccc(-n2ccnc2)cc1)N1CCN(S(=O)(=O)c2ccc3cc(Br)ccc3c2)CC1
Second: Cc1ccc(C2=NC(O)(C(F)(F)F)CN2c2ccc(S(C)(=O)=O)cc2)cc1Cl (configuration not stated)
The melting point of the first is higher: 207 to 209 °C for the first, 201 °C for the second.

First: CC(C)(O)C(=O)c1ccc(F)cc1
Second: CN(C(=O)c1ccc(N)cc1)c1ccccc1N
The melting point of the first is lower: 131 °C for the first, 159 to 160 °C for the second.

First: CC(=NO)NC/C(F)=C\CC[C@H](N)C(=O)O
Second: CCC#CCCOc1ccc(/C=C/C(=O)Nc2ccccc2C(=O)O)cc1OC
The melting point of the first is higher: 198 to 200 °C for the first, 165 to 166 °C for the second.

First: CCOC(=O)[C@@H]1C[C@H]2C[C@H](COCC#N)CC[C@H]2CN1C(=O)OC (racemic)
Second: CCOC(=O)c1ccc2c(SC(=O)N3CCSCC3)cccn2c1=O
The melting point of the first is higher: 263 °C for the first, 146 to 148 °C for the second.

First: COC(=O)CCc1cc([N+](=O)[O-])c(O)c(C(C)(C)C)c1
Second: Cc1ccsc1C(=O)C[N+](=O)[O-]
The melting point of the first is lower: 41 to 42 °C for the first, 59 to 61 °C for the second.

First: Cc1ccc(SC(C#N)c2cccc(C(=O)c3ccccc3)c2)cc1 (configuration not stated)
Second: CC(C)NC(=O)Nc1ccc(Cl)cc1C(=O)c1ccccc1
The melting point of the first is lower: 79 to 79.5 °C for the first, 190 to 192 °C for the second.

First: Brc1cccc(Sc2ncccc2OCCCc2cccnc2)c1
Second: COc1cc(CCCn2ccnc2)ccc1OCc1coc(-c2ccc(C)s2)n1
The melting point of the first is lower: 75 to 76 °C for the first, 92 to 93 °C for the second.

First: COc1cc2[nH]ccc(=O)c2cc1OC
Second: CC(=O)Cc1nc2cc(C)ccc2c(=O)o1
The melting point of the first is lower: 120 to 122 °C for the first, 142 to 144 °C for the second.

Compared with `O=C1C(=Cc2ccco2)CCc2cc(OCCc3c[nH]cn3)ccc21`, `CCn1cc(C2(c3ccc(F)c(-c4cccnc4F)c3)N=C(N)N(C)C2=O)cc1C(=O)OC` (configuration not stated) is higher in melting point: 57 to 60 °C for the first, 114 to 117 °C for the second.

`COC(=O)CNC(=O)[C@H](NC(=O)OCC1c2ccccc2-c2ccccc21)C(C)C` and `CCOC(=O)Cc1ccc(NC(=O)C(CO)NS(=O)(=O)c2ccc(F)cc2)cc1` (racemic) fall in the same range of melting point: 148 to 150 °C for the first, 148 to 150 °C for the second.

First: Cc1ccccc1CC(=O)N1CCN(c2nccs2)CC1
Second: O=C1Nc2ccccc2N(C(=O)CN2CCCCC2CN2CCCC2)c2ccccc21 (configuration not stated)
The melting point of the first is lower: 110 to 111 °C for the first, 199 to 201 °C for the second.

First: CC(C)CN(C[C@H](O)COc1cccc2[nH]c3ccccc3c12)c1ccc(Oc2ccc(C(N)=O)cn2)cc1
Second: O=C(OCC(O)CO)C(=O)c1ccc(OCCOc2ccc3ccccc3c2)cc1 (configuration not stated)
The melting point of the first is higher: 126 to 142 °C for the first, 124 to 125 °C for the second.

First: CCCCn1c(=O)c(-c2c(Cl)cccc2Cl)cc2cnc(N)nc21
Second: CCCCc1nc(SCCF)c(C(=O)O)n1Cc1ccc(-c2ccccc2C(=O)O)cc1
The melting point of the first is higher: 202 to 205 °C for the first, 185 to 186 °C for the second.

`CCCCCCCCCCCCCCCCCCc1cc(OC(=O)CC)ccc1O` and `COc1cc(C=CC(=O)CCCCCBr)cc(OC)c1` cannot be ordered by melting point: 75 to 78 °C for the first, 73 to 76 °C for the second.

Compared with `CCOC(=O)N(c1ccc(Cl)cc1)c1ccccc1N`, `O=C(Nc1ccc(Cl)cc1)C(O)c1ccccc1Cl` (configuration not stated) is higher in melting point: 112 to 115 °C for the first, 120 °C for the second.

First: CC(C)/[N+]([O-])=C/c1ccc(O)cc1O
Second: COc1ccc2c(c1)C(CCNC(=O)C(C)C)CC2 (configuration not stated)
The melting point of the first is higher: 155 to 157 °C for the first, 104 to 105 °C for the second.

Compared with `CCOC(=O)C(Cc1ccc(OC)cc1)c1cc2cc(Br)ccc2s1` (configuration not stated), `COc1ccc2cc([C@H](C)C(=O)OCCOC(=O)C(=O)OCCCO[N+](=O)[O-])ccc2c1` is lower in melting point: 62 to 65 °C for the first, 55 to 58 °C for the second.

First: CCOC(=O)C(=O)Nc1cc2c3c(cccc3c1[N+](=O)[O-])C(=O)OC2=O
Second: N#Cc1ccc(NS(=O)(=O)c2ccc(Cl)cc2)c([N+](=O)[O-])c1
The melting point of the first is higher: 221 to 222 °C for the first, 193 to 195 °C for the second.

Compared with `Cc1nc2cnccc2o1`, `CSc1ccc(-c2coc3ccc(-c4nnc(C)o4)cc23)cc1Cl` is higher in melting point: 56 to 58 °C for the first, 200 to 201 °C for the second.

First: N#Cc1ccc(NC(CNCC(=O)O)[N+](=O)[O-])cc1 (configuration not stated)
Second: O=C(NCCCl)Nc1ccc2[nH]ccc2c1
The melting point of the first is higher: 230 °C for the first, 159 to 161 °C for the second.

Compared with `N#CCCCCC(N)=O`, `OCCCC#CC#Cc1ccccc1` is lower in melting point: 63 to 65 °C for the first, 50.9 to 51.6 °C for the second.

Going from `COC(=O)C1Cc2c([nH]c3ccccc23)C(c2ccoc2)N1` (configuration not stated) to `CN1CC=C(SC(c2cccc(Br)c2)c2nc3ccccc3[nH]2)CC1` (configuration not stated), the melting point rises from 130 °C to 189 °C.

First: COC(=O)NNC(=O)Cl
Second: CCN(C(=O)C(F)(F)F)c1ccc(C(=O)Nc2ccc3ccc(OC)nc3n2)cc1
The melting point of the first is lower: 55 to 58 °C for the first, 150 °C for the second.

Compared with `Nc1ccc(Oc2ccc(Oc3ccc(S(=O)(=O)c4ccc(Oc5ccc(Oc6ccc(N)cc6)cc5)cc4)cc3)cc2)cc1`, `CC1=Cc2ccc(Cl)cc2C(c2ccc(N)c(C)c2)=NN1C(=O)NC1CC1` is higher in melting point: 212 to 214 °C for the first, 233 to 236 °C for the second.

First: COc1ccc(C(=NOC(C)=O)c2ccccc2F)c(O)c1Cl
Second: Cc1cc(Oc2cccc(C(F)(F)F)c2)nn1C(=O)Nc1cc(OC2CCCC2)c(Cl)cc1F
The melting point of the first is higher: 125 to 128 °C for the first, 81 to 83 °C for the second.

Compared with `CN1C2CCCC1CN(c1ccc3cc([N+](=O)[O-])ccc3n1)C2`, `CCNc1ccc2[nH]cc(C3CCN(C)CC3)c2n1` is lower in melting point: 166 °C for the first, 132 to 134 °C for the second.

Compared with `Nc1cccc(CCO)c1`, `COc1ccc2c(c1)C(Cl)CC1C2C(O)CC2(C)C(O)CCC12` (configuration not stated) is higher in melting point: 61 to 64 °C for the first, 150 to 151 °C for the second.

First: C=CCCCCCCCCC(=O)N1CCN(c2cc(N3CCCC3)nc(N3CCCC3)n2)CC1
Second: CCCCCC1(C(=O)Nc2ccc(C(=O)O)cn2)CC2=C(C1)C(C)(C)CCC2(C)C
The melting point of the first is lower: 93 to 96 °C for the first, 172 to 174 °C for the second.
